Reference: US20250064801A1, “USE OF 5-AMINO-2,3-DIHYDRO-1,4-PHTHALAZINEDIONE IN THE TREATMENT OF CONGENITAL MUSCULAR DYSTROPHIES” (METROPHARM AG, priority 2022, published 2025)

Columns and labels:
[1] = tested on: musculus extensor digitorum longus (EDL) muscle in the mdx mouse; assay: Contractile properties (maximum force) of the musculus extensor digitorum longus measured in vitro at end of treatment of mdx mice; assay type: in vivo
Text: The mdx mouse model is the most widely used and investigated animal model in the research of Duchenne muscular dystrophy since the early 1980ies. These mice are characterized by muscle weakness, histological evidence of myopathy and elevated serum levels of creatin kinase (CK) (cf. Bulfield et al. (1984) PNAS 81: 1189-1192). Herein, CK levels are a marker of the breakdown of CK-rich tissues such as skeletal muscles (rhabdomyolysis). The mutation in the mdx mouse is a nonsense mutation (C-to-T transition) in exon 23 that aborts full-length dystrophin expression (cf. Sicinski et al. (1989) Science 244: 1578-1580). Symptoms are moderate and the mean lifespan is reduced by about 25%. During the first two weeks after birth mdx mice are indistinguishable from wild-type mice. Then skeletal muscle necrosis starts until week 6 after birth and thereupon enters in a plateau phase characterized by muscle hypertrophy. […] Many aged mdx mice develop spontaneous sarcoma.
Mice were identified by ear tags. […] These cages were assigned randomly to treatment groups. Animals were monitored daily for changes in behavior.
The experiments were carried out by AGADA Biosciences (Halifax, Canada) on behalf of the applicant. All treatment substances were provided by the applicant. All treatment groups started with 15 mice. Treatment was blinded.
Contractile properties were measured in vitro on the right musculus extensor digitorum longus (EDL) at the end of the study. The mice were anesthetized using ketamine and xylamine. The EDL muscle of the right hindlimb was removed from each mouse and immersed in individual carbogenated baths (95% O2, 5% CO2) containing Ringer's solution (pH 7.4) at 25° C. The muscle was flanked by two electrodes. Using non-fatiguing twitches, the muscle was maintained at 10 mN for force generation. The maximal force was measured with the muscle held at 10 mN. The muscle was stimulated with an electrode to elicit tetanic contractions that are separated by 2-minute rest intervals. […] This plateau was considered the maximum force (mN) generated by the muscle. The cross-sectional area of the muscle was measured based on muscle mass, muscle length, and tissue density. Finally, the muscle specific force (kN/m^2) was calculated based on the cross-sectional area of the muscle and was converted in relation to the individual body weight ([…]).

[2] = Body weight of mdx mice measured weekly over the treatment period; conditions: 1.0 mg/kg (prednisolone oral syrup, deflazacort IP)
Procedure: Animals were received in 2 cohorts (n=49-56; 7-8 per group). Mice were sorted into a total of five treatment groups. The mice of the control groups were wild type C57BL/10ScSnJ and the dmx strain C57BL/10ScSn-Dmdmdx/J. The animals were acclimatized upon arrival to the animal facility for 7 days, housed in cages with up to 5 mice per cage. During the study, 12-hour light/11-hour dark cycles were maintained. Room temperature was maintained between 20° C. and 23° C. Food and water were available ad libitum for the duration of the study. Mice were identified by ear tags. Randomization was done based on the average body weight of the cage. These cages were assigned randomly to treatment groups. Animals were monitored daily for changes in behavior. […]
All treatment compounds were administered via intraperitoneal (IP) injection, with exception of prednisolone that was delivered via oral syrup. […] Once the injection was delivered, the mouse was monitored for a couple of minutes for any adverse side effects. […] Once the complete treatment was delivered the mouse was placed back into its cage and monitored for a couple of minutes for any adverse side effects.
The body weight was measured weekly starting after acclimation of the animals to the facility and the beginning of the treatment (5 weeks of age). […]

[3] = mdx mice, 1.0 mg/kg (prednisolone oral syrup, deflazacort IP)
[4] = mdx mice, 1.0 mg/kg (prednisolone oral syrup, deflazacort IP), right EDL in Ringer's solution 25° C., mean ±SEM

Row | Compound | dose dependence of the maximum force generated by the muscle ([1]; mouse, in vivo) | maximum force generated by the muscle (EDL), related to body weight ([1]; mouse, in vivo, ip, 5 mg/kg) [mN/kg] | percentual improvement of maximum force in comparison to the untreated mdx mice control group (set as 100%) ([1]; mouse, in vivo, ip, 5 mg/kg) [%] | percentual improvement of maximum force in comparison to the untreated mdx mice control group (set as 100%) [1, 3] [%] | maximum force generated by the muscle (EDL), related to body weight [1, 4] [mN/kg] | difference in body weight (diminished increase) ([2]; from about week 6) | body weight increase over the treatment ([2]; weeks of age 5-10, starting at about week 6)
1 | Nc1cccc2c(=O)[nH][nH]c(=O)c12.[Na] [5-amino-2,3-dihydro-1,4-phthalazinedione sodium salt] | dose-dependent improvement | 106.1±8.0 | 16.4 | – | – | – | –
2 | CC(=O)OCC(=O)[C@@]12N=C(C)O[C@@H]1C[C@H]1[C@@H]3CCC4=CC(=O)C=C[C@]4(C)[C@H]3[C@@H](O)C[C@@]12C [deflazacort] | – | – | – | 6.2 | 96.8±5.2 | – | –
3 | C[C@]12C=CC(=O)C=C1CC[C@@H]1[C@@H]2[C@@H](O)C[C@@]2(C)[C@H]1CC[C@]2(O)C(=O)CO [prednisolone] | – | – | – | 18.0 | 107.5±7.2 | about 7% | significantly diminished body weight increase
